Experiments:
[1] = system: persian speedwell; assay: Test Example 5: herbicidal effect by foliage application, plastic box (Table 20, symbol R); type: in vivo, Persian speedwell (Veronica persica); details: foliage application, 320 g/ha, three weeks after application
How it was run: (§1)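 Plants were sown into sterilized diluvial soil under about 1.5 cm cover and kept in a greenhouse at 25° C. to 30° C. Fourteen days on, foliage received an even spray of the diluted emulsion. Herbicidal or crop effect was judged three weeks afterwards.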

[2] = system: lambsquarters; assay: Test Example 4: herbicidal effect by soil treatment (Table 19, symbol O); type: in vivo, lambsquarters (Chenopodium album); details: amount of applied herbicide 320 g/ha
How it was run: (§2)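 Pre-emergence style soil spray: seeds under ~1.5 cm sterilized diluvial soil received a uniform coat of emulsion diluted to the predetermined herbicide amount. Greenhouse 25–30° C; readout at week three on previously defined criteria.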

[3] = system: wild oat; assay: Test Example 4: herbicidal effect by soil treatment (Table 19, symbol I); type: in vivo, wild oat (Avena fatua); details: amount of applied herbicide 320 g/ha
How it was run: as §2

[4] = system: late watergrass; assay: Test Example 2: herbicidal activity, application during weed generation under submerged conditions (Table 17, symbol A); type: in vivo, late watergrass (Echinochloa oryzicola); details: AAH 320 g/ha; application during weed generation, submerged conditions
How it was run: (§3)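 Steps: fill Wagner pots with alluvial soil; add water to give 4 cm depth; sow the species mixed; grow under glass at 25–30° C.; at 1–2 leaves apply water-diluted emulsion formulation to the water surface at a fixed herbicide amount; score after 3 weeks.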

[5] = system: blackgrass; assay: Test Example 4: herbicidal effect by soil treatment (Table 19, symbol J); type: in vivo, blackgrass (Alopecurus myosuroides); details: amount of applied herbicide 320 g/ha
How it was run: as §2

[6] = system: Japanese bulrush; assay: Test Example 2: herbicidal activity, application during weed generation under submerged conditions (Table 17, symbol B); type: in vivo, Japanese bulrush (Schoenoplectus juncoides); details: AAH 320 g/ha; application during weed generation, submerged conditions
How it was run: as §3

[7] = system: barnyard grass; assay: Test Example 4: herbicidal effect by soil treatment (Table 19, symbol H); type: in vivo, barnyard grass (Echinochloa crus-galli); details: amount of applied herbicide 320 g/ha
How it was run: as §2

[8] = system: blackgrass; assay: Test Example 5: herbicidal effect by foliage application, plastic box (Table 20, symbol J); type: in vivo, blackgrass (Alopecurus myosuroides); details: foliage application, 320 g/ha, three weeks after application
How it was run: as §1

[9] = system: green foxtail; assay: Test Example 4: herbicidal effect by soil treatment (Table 19, symbol G); type: in vivo, green foxtail (Setaria viridis); details: amount of applied herbicide 320 g/ha
How it was run: as §2

[10] = system: chickweed; assay: Test Example 5: herbicidal effect by foliage application, plastic box (Table 20, symbol P); type: in vivo, common chickweed (Stellaria media); details: foliage application, 320 g/ha, three weeks after application
How it was run: as §1

[11] = system: velvetleaf; assay: Test Example 5: herbicidal effect by foliage application, plastic box (Table 20, symbol M); type: in vivo, velvetleaf (Abutilon theophrasti); details: foliage application, 320 g/ha, three weeks after application
How it was run: as §1

[12] = system: redroot pigweed; assay: Test Example 5: herbicidal effect by foliage application, plastic box (Table 20, symbol N); type: in vivo, redroot pigweed (Amaranthus retroflexus); details: foliage application, 320 g/ha, three weeks after application
How it was run: as §1

[13] = system: Italian ryegrass; assay: Test Example 4: herbicidal effect by soil treatment (Table 19, symbol K); type: in vivo, Italian ryegrass (Lolium multiflorum); details: amount of applied herbicide 320 g/ha
How it was run: as §2

[14] = system: velvetleaf; assay: Test Example 4: herbicidal effect by soil treatment (Table 19, symbol M); type: in vivo, velvetleaf (Abutilon theophrasti); details: amount of applied herbicide 320 g/ha
How it was run: as §2

[15] = system: Italian ryegrass; assay: Test Example 5: herbicidal effect by foliage application, plastic box (Table 20, symbol K); type: in vivo, Italian ryegrass (Lolium multiflorum); details: foliage application, 320 g/ha, three weeks after application
How it was run: as §1

[16] = system: chickweed; assay: Test Example 4: herbicidal effect by soil treatment (Table 19, symbol P); type: in vivo, common chickweed (Stellaria media); details: amount of applied herbicide 320 g/ha
How it was run: as §2

[17] = system: barnyard grass; assay: Test Example 3: herbicidal effect by foliage application, Wagner pot (Table 18, symbol H); type: in vivo, barnyard grass (Echinochloa crus-galli); details: amount of applied herbicide 320 g/ha
How it was run: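 Plants were sown in alluvial soil held under 0.1–0.5 cm standing water and grown 14 days in a greenhouse at 25–30 °C. An emulsifiable formulation, water-diluted to the set dose, was then sprayed onto the foliage, and effects were scored three weeks later using previously defined criteria.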

Structure (SMILES) | R: persian speedwell, herbicidal effect grade [1] | herbicidal effect, O: lambsquarters [2] | herbicidal effect, I: wild oat [3] | herbicidal effect rating, A: late watergrass [4] | herbicidal effect, J: blackgrass [5] | herbicidal effect rating, B: Japanese bulrush [6] | herbicidal effect, H: barnyard grass [7] | J: blackgrass, herbicidal effect grade [8] | herbicidal effect, G: green foxtail [9] | P: chickweed, herbicidal effect grade [10] | M: velvetleaf, herbicidal effect grade [11] | N: redroot pigweed, herbicidal effect grade [12] | herbicidal effect, K: Italian ryegrass [13] | herbicidal effect, M: velvetleaf [14] | K: Italian ryegrass, herbicidal effect grade [15] | herbicidal effect, P: chickweed [16] | herbicidal effect on H: barnyard grass [17]
CCCC(=O)Oc1c(C)nn(C)c(=O)c1-c1c(-c2ccccc2OC)sc2cc(F)ccc12 [3-004] | 5 (Herbicidal rate of 90% or more (almost completely withered)) | 5 (Herbicidal rate of 90% or more (almost completely withered)) | 3 (Herbicidal rate of 40% or more and less than 70%) | 4 (Herbicidal rate of 70% or more and less than 90%) | 4 (Herbicidal rate of 70% or more and less than 90%) | 2 (Herbicidal rate of 20% or more and less than 40%) | 4 (Herbicidal rate of 70% or more and less than 90%) | 5 (Herbicidal rate of 90% or more (almost completely withered)) | 4 (Herbicidal rate of 70% or more and less than 90%) | 5 (Herbicidal rate of 90% or more (almost completely withered)) | 5 (Herbicidal rate of 90% or more (almost completely withered)) | 5 (Herbicidal rate of 90% or more (almost completely withered)) | 5 (Herbicidal rate of 90% or more (almost completely withered)) | 4 (Herbicidal rate of 70% or more and less than 90%) | 5 (Herbicidal rate of 90% or more (almost completely withered)) | 5 (Herbicidal rate of 90% or more (almost completely withered)) | 5 (Herbicidal rate of 90% or more (almost completely withered))
COc1ccc(-c2sc3cc(F)ccc3c2-c2c(O)c(C)nn(C)c2=O)cc1 [3-005] | 5 (Herbicidal rate of 90% or more (almost completely withered)) | 4 (Herbicidal rate of 70% or more and less than 90%) | 0 (Herbicidal rate of 5% or less (almost no effect)) | 3 (Herbicidal rate of 40% or more and less than 70%) | 0 (Herbicidal rate of 5% or less (almost no effect)) | 3 (Herbicidal rate of 40% or more and less than 70%) | 3 (Herbicidal rate of 40% or more and less than 70%) | 0 (Herbicidal rate of 5% or less (almost no effect)) | 3 (Herbicidal rate of 40% or more and less than 70%) | 5 (Herbicidal rate of 90% or more (almost completely withered)) | 5 (Herbicidal rate of 90% or more (almost completely withered)) | 5 (Herbicidal rate of 90% or more (almost completely withered)) | 5 (Herbicidal rate of 90% or more (almost completely withered)) | 3 (Herbicidal rate of 40% or more and less than 70%) | 3 (Herbicidal rate of 40% or more and less than 70%) | 5 (Herbicidal rate of 90% or more (almost completely withered)) | 5 (Herbicidal rate of 90% or more (almost completely withered))
